Literature values in patent US5792763A, “Serotonin 5-HT1F agonists” (Eli Lilly and Company, priority 1997, dated 1998).

Tests used:
[1] = background section
[2] = test system: cephalic vascular smooth muscle; conditions: background section
[3] = background section; remark: listed apart in the source
neurogenic inflammation = conditions: background section

SMILES: CNS(=O)(=O)Cc1ccc2[nH]cc(CCN(C)C)c2c1 [sumatriptan]
- crossing of the blood-brain barrier [1]: does not cross the blood-brain barrier
- contraction of cephalic vascular smooth muscle [2]: contract cephalic vascular smooth muscle
- effectiveness in the treatment of migraine [3]: effective in the treatment of migraine
- blockade of neurogenic inflammation (neurogenic inflammation): blocked
